Reference: patent US20180093104A1, “LIGHT IRRADIATION METHOD, LIGHT IRRADIATION DEVICE, LIGHT IRRADIATION SYSTEM, DEVICE SYSTEM FOR PHOTODYNAMIC DIAGNOSIS OR PHOTODYNAMIC THERAPY, SYSTEM FOR SPECIFYING TUMOR SITE AND SYSTEM FOR TREATING TUMOR” (SONY CORPORATION, priority 2015, published 2018)

System: MCF7 (Human breast adenocarcinoma-derived cell line)
Assay: In vitro PDT experiment: calcein fluorescence viability observation after 405 nm pulse laser irradiation
Format: cell-based
Procedure: In vitro experiments of PDT were performed by using the following materials. Target cells: MCF7 (Human breast adenocarcinoma-derived cell line) Dish: φ35 mm glass bottom dish (non-coated) Culture medium: D-MEM-10% FBS-1% P/S-1 mM pyruvate sodium Photosensitizer: 10 μg/ml talaporfin Viability assay fluorescence reagent: 10 μg/ml calcein Firstly, dishes A and B in which MCF7 had been cultured in the culture medium described above were prepared. Into the dish A, talaporfin was not added, and the dish A was used as a control. Into the dish B, talaporfin at 10 μg/ml was added. […] After the irradiation, incubation was performed further for 18 hours, the cultured cells in each dish were washed twice with phosphate-buffered saline (PBS), substitution with 1 ml of calcein at 10 μg/ml was performed, and the cultured cells in each dish were observed.

C=Cc1c(C)c2cc3nc(c(CC(=O)N[C@@H](CC(=O)O)C(=O)O)c4[nH]c(cc5nc(cc1[nH]2)C(C)=C5CC)c(C)c4C(=O)O)[C@@H](CCC(=O)O)[C@@H]3C [talaporfin]
killing of cultured cells (calcein fluorescent image, FIG. 8 vs FIG. 7) (Experiment 1: 10 μg/ml talaporfin, 24 hours incubation, pulse laser 405 nm, 120 fs, 1 mW for 30 minutes, observed 18 hours after irradiation, compared with dish A without talaporfin): significantly killed
killing of cultured cells in parts of the dish where irradiation had not been performed (Experiment 2: 10 μg/ml talaporfin, 24 hours incubation, non-irradiated parts of dish B): not able to be confirmed
killing of cultured cells (calcein fluorescent image, FIG. 10 vs FIG. 9) (Experiment 2: 10 μg/ml talaporfin, 24 hours incubation, pulse laser 405 nm for 10 minutes, compared with dish A without talaporfin): significantly killed
killing of cultured cells (calcein fluorescent image, FIG. 12) (Experiment 3: 10 μg/ml talaporfin, 24 hours incubation, not irradiated with a pulse laser): not killed
killing of cultured cells (calcein fluorescent image, FIG. 14) (Experiment 4: 10 μg/ml talaporfin, 1.5 hours incubation, pulse laser 405 nm for 10 minutes): the cells were alive
